System: 22RV1-FOLH1-oe cells
Assay: In vitro cell uptake of 68Ga complexes over time in 22RV1-FOLH1-oe cells
Type: cell-based
Settings: for uptake-time profile (course of cellular uptake with prolonged incubation time): 37 KBq, 37° C., 15-120 minutes
Description: (§1) […] A 500 μL aliquot was added to each well of six 12-well plates. Each group of wells was treated with 37 KBq of [^68Ga]Ga-AAZTA-NI-PSMA, [^68Ga]Ga-AAZTA-NI-PSMA-11, and [^68Ga]Ga-HBED-CC-PSMA-11 solution. Incubation proceeded at 37° C. At 15, 30, 60, 90, and 120 minutes, uptake was terminated with PBS. Cells were lysed with 1 M NaOH, and lysates were absorbed onto filter paper for radioactivity measurement in plastic tubes. Blocking was performed at 60 minutes using excess unlabeled PSMA-11. After incubation, uptake was terminated with PBS, cells were lysed with 1 M NaOH, and lysates were absorbed onto filter paper for radioactivity measurement in plastic tubes.
(§2) 22RV1-FOLH1-oe cells were suspended at a density of 1.5×10^5 cells/mL. A 500 μL aliquot was added to each well of six 12-well plates. Each group of wells was treated with 37 KBq of [^68Ga]Ga-AAZTA-NI-PSMA, [^68Ga]Ga-DOTA-NI-PSMA, [^68Ga]Ga-HBED-CC-NI-PSMA, and [^68Ga]Ga-HBED-CC-PSMA-11 solution. Incubation proceeded at 37° C. At 15, 30, 60, 90, and 120 minutes, uptake was terminated with PBS. Cells were lysed with 1 M NaOH, and lysates were absorbed onto filter paper for radioactivity measurement in plastic tubes. Blocking was performed at 60 minutes using excess unlabeled PSMA-11. After incubation, uptake was terminated with PBS, cells were lysed with 1 M NaOH, and lysates were absorbed onto filter paper for radioactivity measurement in plastic tubes.
as §1, with “three” for “six”, “[^68Ga]Ga-AAZTA-NI-PSMA-093” for “[^68Ga]Ga-AAZTA-NI-PSMA, [^68Ga]Ga-AAZTA-NI-PSMA-11,”
as §2, with “2×10^5” for “1.5×10^5”, “the following solutions: [^68Ga]Ga-HBED-CC-PSMA-11, [^68Ga]Ga-NI-HBED-CC-PSMA-11, [^68Ga]Ga-HBED-CC-PSMA-093,” for “[^68Ga]Ga-AAZTA-NI-PSMA, [^68Ga]Ga-DOTA-NI-PSMA, [^68Ga]Ga-HBED-CC-NI-PSMA,”, “[^68Ga]Ga-NI-HBED-CC-PSMA-093.” for “[^68Ga]Ga-HBED-CC-PSMA-11 solution.”

O=C([O-])CN(CCN(CC(=O)[O-])Cc1cc(CCC(=O)NCCCCCC(=O)NCCCC[C@H](NC(=O)N[C@@H](CCC(=O)O)C(=O)O)C(=O)O)ccc1[O-])Cc1cc(CCC(=O)O)ccc1[O-].[68Ga+3].[OH3+] [[^68Ga]Ga-HBED-CC-PSMA-11]
uptake-time profile (course of cellular uptake with prolonged incubation time) (Application Embodiment 1, 1×10^5 cells/mL, n=3 (FIG. 12)): initially increased and subsequently decreased
cellular uptake compared with the other radioactive metal complexes (Application Embodiment 1, versus [^68Ga]Ga-AAZTA-NI-PSMA and [^68Ga]Ga-AAZTA-NI-PSMA-11, all time points): significantly higher
uptake-time profile (course of cellular uptake with prolonged incubation time) (Application Embodiment 2, 1.5×10^5 cells/mL, n=3 (FIG. 14)): initially increased and subsequently decreased
uptake-time profile (course of cellular uptake with prolonged incubation time) (Application Embodiment 3, 1×10^5 cells/mL, n=3 (FIG. 16)): initially increased and subsequently decreased
uptake-time profile (course of cellular uptake with prolonged incubation time) (Application Embodiment 4, 2×10^5 cells/mL, n=3 (FIG. 18)): gradually increased
